Assay results as given in publication PMC9905731, “PIN1 and PIN4 inhibition via parvulin impeders Juglone, PiB, ATRA, 6,7,4′-THIF, KPT6566, and EGCG thwarted hepatitis B virus replication” (Frontiers in Microbiology, 2023).

Assays:
[1] = MTT cell cytotoxicity assay; assay type: cell-based; conditions: human, Huh7, HepAD38, HepG2, HepG2.2.15 cells, cell line not stated, read-out: 50% cytotoxic concentration (CC50)
Experimental: Since PIN1 and PIN4 were highly expressed in HCC cells, we speculated that the inhibition of parvulins via Juglone, PiB, ATRA, 6,7,4′-THIF, KPT6566, and EGCG might affect HBV replication (Figure 2A). The optimum dosage was determined in several HCC cell lines. Compared to mock or solvent-treated 10, 20, 30, 50, or 100 μM, drug-treated cell viabilities were determined by the MTT assay in Huh7, HepAD38, HepG2, and HepG2.2.15 cells (Figure 2B). The data from triplicate experiments were used to examine 50% cytotoxic concentration (CC50) of Juglone, PiB, ATRA, 6,7,4′-THIF, KPT6566, and EGCG via the GraphPad Prism software (Figure 2C). The CC50 values for Juglone and PiB were 30 and 40 μM, respectively. […] However, KPT6566 and EGCG depicted 45 and 80 μM as CC50 values, respectively. We optimized the effects of Juglone and PiB parvulin inhibitors in diverse HBV replicating HCC cell lines at 20 μM concentration. In addition, 30 μM concentrations were used to determine the effects of ATRA, 6,7,4′-THIF, and KPT6566 on HBV replication. While a 40 μM concentration of EGCG was optimized for determining the effects on HBV replication in multiple HCC cell lines.
Figure 2 MTT assay to measure the cytotoxicity of parvulin inhibitors (Juglone, PiB, ATRA, 6,7,4′-THIF, KPT6566, and EGCG). (A) The chemical structures of parvulin inhibitors including Juglone, PiB, ATRA, 6,7,4′-THIF, KPT6566, and EGCG are shown. (B) Huh7, HepAD38, HepG2, and HepG2.2.15 cells were exposed to varying concentrations (10 μM, 20 μM, 30 μM, 50 μM, and 100 μM) of inhibitors Juglone, PiB, ATRA, 6,7,4′-THIF, KPT6566, and EGCG for 48 h and values were determined via MTT assay. (C) The concentrations of Juglone, PiB, ATRA, 6,7,4′-THIF, KPT6566, and EGCG at which cell viability was reduced to 50% (CC50) to that of the control (cells treated by the solvent) were determined. TEXT PRINTED IN THE PICTURE: (C) Juglone: CC50: 30 | (C) PiB: CC50: 40 | (C) ATRA: CC50: 45 | (C) 6,7,4 THIF: CC50: 50 | (C) KPT6566: CC50: 45 | (C) EGCG: CC50: 80 DOUBTS OF THE COPYIST ABOUT THIS PICTURE: All CC50 labels in panel C are printed small and blurred, and no unit is printed with them / Juglone, CC50: 30 or 50 / ATRA, CC50: 45 or 46 / 6,7,4 THIF, CC50: 50 or 60 / KPT6566, CC50: 45 or 46 / EGCG, CC50: 80 or 30, first digit partly overlapped by an error bar
The cytotoxic effects of parvulin inhibitors (Juglone, PiB, ATRA, 6,7,4′-THIF, KPT6566, and EGCG) via MTT (3-[4,5-dimethylththiazol-2-yl]-2,5-diphenyltetrazolium bromide) assay were determined in Huh7, HepAD38, HepG2, and HepG2.2.15 cell lines. The cells were grown in 96-well microplates and incubated with serial dilutions of Juglone, PiB, ATRA, 6,7,4′-THIF, KPT6566, or EGCG for 48 h at 37°C. The cellular viabilities were examined after replacing the culture medium with 100 μl of MTT in DMEM. After 3 h, 100 μl of DMSO was added to dissolve the formazan of MTT. The absorbance value was measured at 570 nm via plate reader. Afterward, the concentrations of Juglone, PiB, ATRA, 6,7,4′-THIF, KPT6566, and EGCG at which cell viability was reduced to 50% (CC50) to that of the control were determined.

[2] = system: HBV cccDNA; test: HBV cccDNA levels by Hirt extraction and Southern blotting; assay type: cell-based, hepatitis B virus; conditions: HBV-infected HepG2-hNTCP-C9 cells, 10 days; 20 μM Juglone or PiB, 30 μM ATRA, 6,7,4′-THIF or KPT-6566, 40 μM EGCG
Experimental: Mock-infected HepG2-hNTCP-C9 cells (lane 1) or HBV-infected HepG2-hNTCP-C9 cells (lanes 2–3) were treated with solvent (lane 2) or 20 μM Juglone, 20 μM PiB, 30 μM ATRA, 30 μM 6,7,4′-THIF, 30 μM KPT6566, or 40 μM EGCG (lane 3) for 10 days. HBV cccDNA levels were determined by the Hirt extraction method, as described previously ([Saeed et al., 2019]). Data are presented from three independent experiments.
HBV cccDNA synthesis was examined using the protein-free Hirt cccDNA extraction method. Briefly, HBV-infected PIN1 or PIN4 KD cells at approximately 100% confluency were incubated for 10 days, lysed with 10 mM EDTA and 10 mM Tris–HCl [pH 7.5] containing 0.6% SDS-TE buffer, treated for 16 h by adding 5 M NaCl to the final concentration of 1 M, and precipitated by centrifugation for 30 min at 14,500 × g. The supernatants were subjected to multiple phenol extractions (two times) followed by cccDNA extraction via phenol/chloroform. The supernatant containing cccDNA was precipitated by ethanol and furthermore analyzed by Southern blotting. The HBV cccDNA ChIP was performed using cccDNA-specific primers and analyzed by PCR (GeneAmp 2,700, Applied Biosystems), as described previously ([Bichko et al., 1985]; [Piracha et al., 2018], [2020]; [Saeed et al., 2019], [2021]). From the clinical specimens, HBV cccDNA levels were examined, as described previously ([Zhang et al., 2017]), using 251F 5′-GAC TYG TGG TGG ACT TCT C-3′ and 1190R 5′-TCA GCA AAY ACT YGG CA-3′ set of primers.

Structure (SMILES) | CC50 at 48 h [1] [µM] | HBV cccDNA levels [2]
CC(C)(C)c1ccc(S(=O)(=O)N=C2C=C(SCC(=O)O)C(=O)c3ccccc32)cc1 [KPT6566, 2-[[4-[[[4-(1,1-dimethylethyl)phenyl]sulfonyl]imino]-1,4-dihydro-1-oxo-2-naphthalenyl]thio] acetic acid] | 45 | without affecting HBV cccDNA levels
O=c1c(-c2ccc(O)cc2)coc2cc(O)c(O)cc12 [6,7,4′-THIF, 6,7-dihydroxy-3-(4-hydroxyphenyl)-4H-chromen-4-one] | 50 | without affecting HBV cccDNA levels
CCOC(=O)CN1C(=O)c2ccc3c4c(ccc(c24)C1=O)C(=O)N(CC(=O)OCC)C3=O [PiB, 1,3,6,8-tetrahydro-1,3,6,8-tetraoxo-benzo [lmn][3,8] phenanthroline-2,7-diacetic acid, 2,7-diethyl ester] | 40 | without affecting HBV cccDNA levels
CC1=C(/C=C/C(C)=C/C=C/C(C)=C/C(=O)O)C(C)(C)CCC1 [ATRA, All-trans-retinoic acid] | 45 | without affecting HBV cccDNA levels
O=C(O[C@@H]1Cc2c(O)cc(O)cc2O[C@@H]1c1cc(O)c(O)c(O)c1)c1cc(O)c(O)c(O)c1 [EGCG, Epigallocatechin gallate] | 80 | without affecting HBV cccDNA levels
O=C1C=CC(=O)c2c(O)cccc21 [Juglone, 5-hydroxyl-1,4-naphthoquinone] | 30 | without affecting HBV cccDNA levels
